Five molecules from US7947675B2, “Trifluoromethylbenzamide derivatives and therapeutic uses thereof” (Merck Patent GmbH, priority 2005, dated 2011) can be followed below.

Data set [1] concerns the target T1, CETP (cholesteryl ester transfer protein) (Homo sapiens, UniProt P11597).
T1 sequence (P11597 18-493): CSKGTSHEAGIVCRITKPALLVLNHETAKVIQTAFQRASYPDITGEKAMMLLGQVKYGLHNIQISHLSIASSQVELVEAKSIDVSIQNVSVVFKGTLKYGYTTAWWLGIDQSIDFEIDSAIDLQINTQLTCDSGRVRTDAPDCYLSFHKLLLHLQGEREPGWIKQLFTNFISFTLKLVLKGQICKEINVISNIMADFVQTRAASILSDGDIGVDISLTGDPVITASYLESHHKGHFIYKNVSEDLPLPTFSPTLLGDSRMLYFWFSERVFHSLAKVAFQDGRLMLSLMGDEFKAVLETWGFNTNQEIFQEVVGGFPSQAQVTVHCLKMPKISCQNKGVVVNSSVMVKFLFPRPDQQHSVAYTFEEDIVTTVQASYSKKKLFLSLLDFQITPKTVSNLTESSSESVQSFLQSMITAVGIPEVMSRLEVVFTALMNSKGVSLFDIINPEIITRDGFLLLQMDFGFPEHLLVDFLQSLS
Nature of the data set: In vitro screening test: inhibitory effect on the activity of CETP (3H-cholesterol ester transfer from HDL to biotinylated LDL, SPA). The class given is biochemical. The conditions noted are these: incubation 24 hours at 37° C., relative to control (CETP+solvent). The procedure: Measurement of an inhibitory effect on the activity of CETP (cholesteryl ester transfer protein)
The measurement of the CETP activity is performed by measuring the transfer of ^3H-cholesterol ester from the HDLs to the biotinylated LDLs.
The transfer is measured after incubation for 24 hours in the presence of donor (HDL), acceptor (LDL) and CETP, with or without inhibitor. The reaction is stopped and the transfer measured by addition of SPA streptavidin beads (Amersham).
The increase in scintillation is proportional to the transfer of ^3H-cholesterol ester via CETP to the LDLs.
To perform the test, 10 μl of ^3H-cholesterol ester HDL, 10 μl of biotinylated LDL and 10 μl of HEPES buffer (50 mM HEPES/[…]/0.1% BSA/0.05% NaN3, pH 7.4) are mixed with 10 μl of CETP (1 mg/ml) and the test product (1 μl of the stock solution at 10 mM in DMSO) or 1 μl of DMSO alone in a 96-well microplate (Costar).
Screening is performed at a final concentration of 10 μM per well in 0.1% of solvent.
The plates are then covered with a film, shaken and incubated under a humid atmosphere at 37° C. for 24 hours.
200 μl of SPA-streptavidin beads solution (Amersham, TRKQ 7005) are added and the radioactivity reading is taken 1 hour later on a scintillation counter (Top Count, Packard) with a reading time of 0.5 minute.
The inhibition results are expressed relative to the control test (CETP+solvent).
The IC 50 values are determined and expressed in μM.

With `Nc1cc(C(F)(F)F)cc(C(=O)Nc2ccc(Cl)c(Cl)c2)c1N1CCCCC1` [Example 2, 3-Amino-N-(3,4-dichlorophenyl)-2-piperid-1-yl-5-trifluoromethylbenzamide], the IC50 (as a rule, the concentration that inhibits the measured activity by half) in data set [1] is 930 nM. `N#Cc1cc(C(F)(F)F)cc(C(=O)Nc2ccc(Cl)c(Cl)c2)c1N1CCCCC1` [Example 4, 3-Cyano-N-(3,4-dichlorophenyl)-2-piperid-1-yl-5-trifluoromethylbenzamide]: the melting point (as a rule, the temperature of the solid-liquid transition) amounted to 175 °C. In data set [1], `O=C(Nc1ccc(Cl)c(Cl)c1)c1cc(C(F)(F)F)cc(Br)c1N1CCCCC1` [Example 3, 3-Bromo-N-(3,4-dichlorophenyl)-2-piperid-1-yl-5-trifluoromethylbenzamide] showed an IC50 of 890 nM.

Regarding `CC1CCN(c2c(Cl)cc(C(F)(F)F)cc2C(=O)Nc2ccc(Cl)c(Cl)c2)CC1` [Example 6, 3-Chloro-N-(3,4-dichlorophenyl)-2-(4-methylpiperid-1-yl)-5-trifluoromethylbenzamide], in data set [1], the midpoint of inhibition, the IC50, lay at 750 nM. On the same count and under the same terms, the same measure for `O=C(Nc1ccc(Cl)c(Cl)c1)c1cc(C(F)(F)F)cc([N+](=O)[O-])c1N1CCCCC1` [Example 1, N-(3,4-Dichlorophenyl)-3-nitro-2-piperid-1-yl-5-trifluoromethylbenzamide]: 1450 nM.
